In patent publication US10751380B2, “Compound and method for treating spasms, inflammation and pain” (priority 2018, dated 2020):
Several values for one entry are separate records, joined by “and”; a condition that tells them apart may be missing. Equal entries are not always repeated. Where two headings read alike, the source gives them in different places.

What was measured:
[1] = by mouth, immediate-release formulation; cited from earlier work
[2] = mice, subcutaneous; cited from earlier work
[3] = mice, oral administration; cited from earlier work
[4] = biological target: μ-subtype opioid receptor (MOR) (Homo sapiens, UniProt P35372); conditions: cited from earlier work
[5] = cited from earlier work
[6] = man, cited from earlier work
[7] = animal studies, compared with codeine; cited from earlier work
[8] = cited from earlier work; remark: listed apart in the source
[9] = cited from earlier work; remark: listed apart in the source
[10] = cited from earlier work; remark: listed apart in the source
[11] = cited from earlier work; remark: listed apart in the source
[12] = cited from earlier work; remark: listed apart in the source
[13] = 2 mg/mL; cited from earlier work
[14] = cited from earlier work; remark: listed apart in the source
[15] = cited from earlier work; remark: listed apart in the source
[16] = mice, cited from earlier work
[17] = topical; cited from earlier work
[18] = 20 mg of THC and 120 mg of codeine; cited from earlier work
[19] = Acute oral toxicity of THC in rats (Thompson 1973); conditions: 150 lb., female or male, respectively
[20] = cited from earlier work; remark: listed apart in the source
[21] = cited from earlier work; for analgesic effect versus placebo: 5 mg of THC and 50 mg of codeine
[22] = cited from earlier work; for excretion: as acid metabolites
[23] = dogs, cited from earlier work
[24] = doses of 15 and 20 mg; cited from earlier work
[25] = oral, dissolved in sesame oil, cited from earlier work
[26] = 50 mg of THC daily, P<0.01; cited from earlier work
[27] = monkeys, up to 9000 mg/kg THC; cited from earlier work
[28] = of 750 courses of oral therapy; cited from earlier work

Chain of μ-subtype opioid receptor (MOR) (P35372 whole entry): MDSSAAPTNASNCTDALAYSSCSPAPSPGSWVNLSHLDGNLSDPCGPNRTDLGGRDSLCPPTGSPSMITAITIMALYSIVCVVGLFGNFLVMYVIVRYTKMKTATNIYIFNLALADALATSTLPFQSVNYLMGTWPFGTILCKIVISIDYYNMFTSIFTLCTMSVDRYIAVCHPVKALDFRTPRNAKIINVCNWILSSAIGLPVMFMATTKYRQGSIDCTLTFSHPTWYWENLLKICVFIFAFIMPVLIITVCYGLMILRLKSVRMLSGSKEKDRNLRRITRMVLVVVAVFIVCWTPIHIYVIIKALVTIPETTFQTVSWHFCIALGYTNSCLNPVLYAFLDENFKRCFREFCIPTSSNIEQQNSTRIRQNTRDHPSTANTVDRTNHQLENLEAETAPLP

SMILES: COc1cccc(C2(O)CCCCC2CN(C)C)c1 (centres unmarked) [Tramadol]
- onset of pain relief [1]: within an hour

SMILES: CC[C@@H]1CN2CC[C@@]3(O)C(=Nc4cccc(OC)c43)[C@@H]2C[C@@H]1/C(=C\OC)C(=O)OC [7-hydroxymitragynine, (αE,2S,3S,7aS,12bS)-3-ethyl-1,2,3,4,6,7,7a,12b-octahydro-7a-hydroxy-8-methoxy-α-(methoxymethylene)-indolo[2,3-a]quinolizine-2-acetic acid methyl ester]
- gastrointestinal transit [2]: inhibition of the gastrointestinal transit
- analgesic potency relative to morphine [3]: thirteen times more potent analgesic than morphine
- activity at the μ-subtype opioid receptor (MOR) [4]: partial agonists

SMILES: CC[C@@H]1CN2CCc3c([nH]c4cccc(OC)c34)[C@H]2C[C@@H]1/C(=C\OC)C(=O)OC (stereo in doubt) [mitragynine, (aE,2S,3S,12bS)-3-ethyl-1,2,3,4,6,7,12,12b-octahydro-8-methoxy-α-(methoxymethylene)-indolo[2,3-a]quinolizine-2-acetic acid methyl ester]
- pKa ([5]; conventional UV): 8.11±0.11
- pKa ([5]; microplate reader determination): 8.08±0.04
- urine excretion of unchanged form ([6]; 24-hour period): 0.14%
- apparent volume of distribution ([6]; oral Kratom tea, nine subjects): 38.04 ± 24.32 L/kg
- terminal half-life ([6]; oral Kratom tea, nine subjects): 23.24 ± 16.07 h
- time to reach the maximum plasma concentration ([6]; oral Kratom tea, nine subjects): 0.83 ± 0.35 h
- antinociceptive and cough-suppressant effects [7]: comparable to those of codeine
- 2-deoxy-D-glucose-stimulated gastric acid secretion ([8]; administration into fourth ventricle of anesthetized rats, reversed by naloxone): inhibition of 2-deoxy-D-glucose-stimulated gastric acid secretion in a dose dependent manner
- basal gastric acid secretion ([8]; administration into the lateral ventricle): did not alter
- total drug release in in vitro dissolution ([9]; simulated gastric fluid (SGF)): higher
- drug release in in vitro dissolution ([9]; simulated intestinal fluid (SIF)): prolonged and incomplete
- lethality ([10]; rats, 200 mg/kg): lethal effects
- toxicity ([10]; rodents, dose levels of 800-900 mg/kg): no toxicity
- log P [11]: 1.73 and 1.70
- activity at the μ-subtype opioid receptor (MOR) [4]: partial agonists
- water solubility [12]: < 100 µg/mL
- nerve conduction, compound nerve action potential [13]: blocked the nerve conduction, amplitude and duration of compound nerve action potential

SMILES: CC(=O)Oc1cc(O[C@H](C)CCCc2ccccc2)cc2c1[C@@H]1C[C@H](O)CC[C@H]1[C@H](C)N2 [Levonantradol]
- analgesia versus placebo ([14]; human small RCTs): superior to placebo
- patients reporting sedation ([14]; in vivo): almost half the patients
- analgesia versus placebo ([15]; 1.5, 2, 2.5, 3 mg intermuscular, all doses, at least P<0.05, no dose-response): significantly superior to placebo
- patients reporting at least one side-effect ([15]; human, in vivo): 57%

SMILES: CCCCCc1cc(O)c2c(c1)OC(C)(C)c1ccc(C)cc1-2 [CBN, cannabinol]
- inhibition of PBQ-induced writhing ([16]; doses higher than 10 mg/kg): 40%
- antagonism of TPA-induced erythema of skin [17]: least effective

SMILES: CCCCCc1cc(O)c2c(c1)OC(C)(C)[C@@H]1CCC(C)=C[C@@H]21 [THC, (−)-(6aR,10aR)-6,6,9-trimethyl-3-pentyl-6a,7,8,10a-tetrahydro-6H-benzo[c]chromen-1-ol]
- analgesic effectiveness, THC versus codeine [18]: equally effective
- LD50 scaled up to an adult human [19]: 50 to 86 g
- dose at which maximally effective in the PBQ test ([16]; dose that induced catalepsy): 10 mg/kg
- analgesia versus placebo ([14]; human small RCTs): significantly superior to placebo
- time of peak analgesia ([14]; human small RCTs): around 5 hours
- patients who experienced sedation ([20]; 10 mg/m2): one-third
- patients with euphoria ([20]; 10 mg/m2): majority of patients
- patients' self-reports of nausea and vomiting versus placebo ([20]; 22 cancer patients resistant to conventional anti-emetics, oral): statistically superior to placebo
- analgesic effect versus placebo [21]: analgesic effect in comparison with placebo
- effect on spasticity ([21]; 5 mg of THC): significant effect on spasticity
- excretion ([22]; feces): 65-80%
- bioavailability ([22]; healthy adults): 10-20%
- biological half-life ([22]; in vivo): 1.6-59 h
- metabolism ([22]; in vivo): mostly hepatic by CYP2C
- bioavailability ([22]; inhalation): 10-35%
- absolute bioavailability ([22]; oral administration, on an average): 13%
- bioavailability ([22]; oral): 6-20%
- biological half-life ([22]; orally administered dronabinol): 25-36 h
- excretion ([22]; urine): 20-35%
- minimum lethal oral dose ([23]; oral): more than 3 g/kg
- death due to toxicity at maximum dose ([23]; up to 3000 mg/kg THC): no cases of death
- pain relief versus placebo [24]: significantly superior to placebo
- LD50 ([25]; female rats): 730 mg/kg
- LD50 ([25]; male rats): 1270 mg/kg
- morphine requirement during active treatment [26]: significantly reduced
- death due to toxicity at maximum dose [27]: no cases of death
- poor or partial response [28]: approximately 65%
- antagonism of TPA-induced erythema of skin [17]: least effective

SMILES: C=C(C)[C@@H]1CCC(C)=C[C@H]1c1c(O)cc(CCCCC)cc1O [CBD, cannabidiol]
- effectiveness at inhibition of PBQ-induced writhing among cannabinoids ([16]; oral, 100 micrograms/kg): most effective

SMILES: CCCCCc1cc(O)cc(O)c1 [olivetol]
- dose of maximal effect in the PBQ test [16]: about 100 micrograms/kg

SMILES: COc1ccc2c3c1O[C@H]1[C@@H](O)C=C[C@H]4[C@@H](C2)N(C)CC[C@@]341 [codeine]
- analgesic effectiveness, THC versus codeine [18]: equally effective
- analgesic effect versus placebo [21]: analgesic effect in comparison with placebo
